# Measurements published in patent publication US11590139B2, “Substituted aminopurine compounds, compositions thereof, and methods of treatment therewith” (Signal Pharmaceuticals, LLC, priority 2014, dated 2023).
# Tested on: Lox-IMVI melanoma cell line
# Test: Lox-IMVI anti-proliferative assay (growth inhibition, Cell Titer-Glo)
# Assay type: cell-based, human
# Conditions: Homo sapiens; IC50 activity level in the cell-based Lox-IMVI anti-proliferative assay; read-out: Activity
# Procedure, shortened: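 First, compound was dispensed as a 10-point 3-fold series (0.5 nM–10 μM, duplicate). Then cells in RPMI + 10% FBS were added and grown 72 h at 37 °C with 0.2% DMSO. Finally, ATP luminescence was read and IC50 calculated versus DMSO control.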
row,Structure (SMILES),IC50
1,"NC(=O)[C@H]1CC[C@@H](n2c(Nc3c(F)cc(F)cc3F)nc3cnc(N[C@H]4CCOC[C@H]4F)nc32)CC1 [Example 306, (1R,4s)-4-(2-((3S,4S)-3-fluorotetrahydro-2H-pyran-4-ylamino)-8-(2,4,6-trifluorophenylamino)-9H-purin-9-yl)cyclohexanecarboxamide]",250 to 500 nM
2,"CC[C@@H](CO)Nc1ncc2nc(Nc3c(F)cc(Cl)cc3F)n([C@H]3CC[C@@H](C(N)=O)CC3)c2n1 [Example 146, (1R,4s)-4-(8-(4-chloro-2,6-difluorophenylamino)-2-((S)-1-hydroxybutan-2-ylamino)-9H-purin-9-yl)cyclohexanecarboxamide]",500 to 1000 nM
3,"NC(=O)[C@H]1CC[C@@H](n2c(Nc3c(F)cccc3F)nc3cnc(N[C@H]4CCOC[C@H]4F)nc32)CC1 [Example 305, (1R,4s)-4-(8-(2,6-difluorophenylamino)-2-((3S,4S)-3-fluorotetrahydro-2H-pyran-4-ylamino)-9H-purin-9-yl)cyclohexanecarboxamide]",500 to 1000 nM
4,"COC[C@H](C)Nc1ncc2nc(Nc3c(Cl)cc(Cl)cc3Cl)n([C@H]3CC[C@@H](C(N)=O)CC3)c2n1 [Example 142, (1R,4s)-4-(2-((S)-1-methoxypropan-2-ylamino)-8-(2,4,6-trichlorophenylamino)-9H-purin-9-yl)cyclohexanecarboxamide]",> 1000 nM
5,"CC[C@@H](CO)Nc1ncc2nc(Nc3c(F)ccc(F)c3F)n([C@H]3CC[C@@H](C(N)=O)CC3)c2n1 [Example 148, (1R,4s)-4-(2-((S)-1-hydroxybutan-2-ylamino)-8-(2,3,6-trifluorophenylamino)-9H-purin-9-yl)cyclohexanecarboxamide]",> 1000 nM
6,"CC(C)(C)OC(=O)N1CCC[C@@H](Nc2ncc3nc(Nc4c(F)cc(Cl)cc4F)n([C@H]4CC[C@@H](C(N)=O)CC4)c3n2)C1 [Example 162, (R)-tert-butyl 3-(9-((1s,4S)-4-carbamoylcyclohexyl)-8-(4-chloro-2,6-difluorophenylamino)-9H-purin-2-ylamino)piperidine-1-carboxylate]",> 1000 nM
7,"NC(=O)[C@H]1CC[C@@H](n2c(Nc3ccc(Cl)cc3F)nc3cnc(NC4CCOCC4)nc32)CC1 [Example 60, (1s,4s)-4-(8-(4-chloro-2-fluorophenylamino)-2-(tetrahydro-2H-pyran-4-ylamino)-9H-purin-9-yl)cyclohexanecarboxamide]",500 to 1000 nM
8,"CS(=O)(=O)N1CCC(Nc2ncc3nc(Nc4ccc(Cl)c(F)c4F)n([C@H]4CC[C@@H](C(N)=O)CC4)c3n2)CC1 [Example 298, (1s,4s)-4-(8-(4-chloro-2,3-difluorophenylamino)-2-(1-(methylsulfonyl)piperidin-4-ylamino)-9H-purin-9-yl)cyclohexanecarboxamide]",> 1000 nM
9,"NC(=O)[C@H]1CC[C@@H](n2c(Nc3ccc(Cl)cc3F)nc3cnc(NC4CCCC4)nc32)CC1 [Example 95, (1s,4s)-4-(8-(4-chloro-2-fluorophenylamino)-2-(cyclopentylamino)-9H-purin-9-yl)cyclohexanecarboxamide]",> 1000 nM
10,"NC(=O)[C@H]1CC[C@@H](n2c(Nc3c(F)cc(Cl)cc3F)nc3cnc(N[C@H]4CCC[C@@H](O)C4)nc32)CC1 [Example 372, (1R,4s)-4-(8-(4-chloro-2,6-difluorophenylamino)-2-((1S,3R)-3-hydroxycyclohexylamino)-9H-purin-9-yl)cyclohexanecarboxamide]",> 1000 nM
11,"CC1(C)CC[C@@H](Nc2ncc3nc(Nc4c(Cl)cc(F)cc4Cl)n([C@H]4CC[C@@H](C(N)=O)CC4)c3n2)C[C@H]1O [Example 388, (1S,4s)-4-(8-(2,6-dichloro-4-fluorophenylamino)-2-((1R,3R)-3-hydroxy-4,4-dimethylcyclohexylamino)-9H-purin-9-yl)cyclohexanecarboxamide]",> 1000 nM
12,"Cc1ccc(F)c(Nc2nc3cnc(NC4CCOCC4)nc3n2[C@H]2CC[C@@H](C(N)=O)CC2)c1Cl [Example 91, (1s,4s)-4-(8-(2-chloro-6-fluoro-3-methylphenylamino)-2-(tetrahydro-2H-pyran-4-ylamino)-9H-purin-9-yl)cyclohexanecarboxamide]",> 1000 nM

# Same assay, conditions: Homo sapiens; Lox-IMVI anti-proliferative assay, IC50 activity level; read-out: Activity
row,Structure (SMILES),IC50
1,"COC(=O)N1CCC[C@@H](Nc2ncc3nc(Nc4c(Cl)cc(F)cc4Cl)n([C@H]4CC[C@@H](C(N)=O)CC4)c3n2)C1 [Example 410, (R)-methyl 3-(9-((1s,4S)-4-carbamoylcyclohexyl)-8-(2,6-dichloro-4-fluorophenylamino)-9H-purin-2-ylamino)piperidine-1-carboxylate]",> 1000 nM
2,"NC(=O)[C@H]1CC[C@@H](n2c(Nc3c(F)cc(Cl)cc3F)nc3cnc(N[C@H]4CCC(F)(F)C4)nc32)CC1 [Example 587, (1R,4s)-4-(8-(4-chloro-2,6-difluorophenylarnino)-2-((S)-3,3-difluorocyclopentylamino)-9H-purin-9-yl)cyclohexanecarboxamide]",250 to 500 nM
3,"C[C@]1(C(N)=O)CC[C@H](n2c(Nc3c(F)cc(F)cc3F)nc3cnc(NC4CCCC4)nc32)CC1 [Example 494, (1r,4r)-4-(2-(cyclopentylamino)-8-(2,4,6-trifluorophenylamino)-9H-purin-9-yl)-1-methylcyclohexanecarboxamide]",> 1000 nM
4,"C[C@]1(C(N)=O)CC[C@H](n2c(Nc3c(F)cc(C#N)cc3Cl)nc3cnc(NC4CCCC4)nc32)CC1 [Example 486, (1r,4r)-4-(8-(2-chloro-4-cyano-6-fluorophenylamino)-2-(cyclopentylamino)-9H-purin-9-yl)-1-methylcyclohexanecarboxamide]",500 to 1000 nM
5,"COC(=O)N1CCC[C@@H](Nc2ncc3nc(Nc4c(F)cc(Cl)cc4F)n([C@H]4CC[C@@H](C(N)=O)CC4)c3n2)C1 [Example 408, (R)-methyl 3-(9-((1s,4S)-4-carbamoylcyclohexyl)-8-(4-chloro-2,6-difluorophenylamino)-9H-purin-2-ylamino)piperidine-1-carboxylate]",500 to 1000 nM
6,"C[C@H]1COCC[C@@H]1Nc1ncc2nc(Nc3c(F)cc(Cl)cc3F)n([C@H]3CC[C@@H](C(N)=O)CC3)c2n1 [Example 507, (1R,4s)-4-(8-(4-chloro-2,6-difluorophenylamino)-2-((3R,4S)-3-methyltetrahydro-2H-pyran-4-ylamino)-9H-purin-9-yl)cyclohexanecarboxamide]",> 1000 nM
7,"C[C@]1(C(N)=O)CC[C@@H](n2c(Nc3c(F)cc(F)cc3Cl)nc3cnc(NC4CCC(F)(F)CC4)nc32)CC1 [Example 527, (1s,4s)-4-(8-(2-chloro-4,6-difluorophenylamino)-2-(4,4-difluorocyclohexylamino)-9H-purin-9-yl)-1-methylcyclohexanecarboxamide]",< 250 nM
8,"NC(=O)[C@H]1CC[C@@H](n2c(Nc3c(F)cc(F)cc3Cl)nc3cnc(NC4CCCOCC4)nc32)CC1 (stereo partly shown) [Example 538, (1s,4s)-4-(8-(2-chloro-4,6-difluorophenylamino)-2-(oxepan-4-ylamino)-9H-purin-9-yl)cyclohexanecarboxamide]",250 to 500 nM

# Same assay, conditions: Homo sapiens; Lox-IMVI melanoma cell line, anti-proliferative assay; read-out: Activity (IC50 activity level)
row,Structure (SMILES),IC50
1,"C[C@]1(C(N)=O)CC[C@@H](n2c(Nc3c(F)cc(F)cc3Cl)nc3cnc(N[C@H]4CCC[C@@H](O)C4)nc32)CC1 [Example 626, (1R,4s)-4-(8-(2-chloro-4,6-difluorophenylamino)-2-((1S,3R)-3-hydroxycyclohexylamino)-9H-purin-9-yl)-1-methylcyclohexanecarboxamide]",500 to 1000 nM
2,"NC(=O)[C@H]1CC[C@@H](n2c(Nc3c(F)cc(F)cc3Cl)nc3cnc(NC[C@@H]4CCCC[C@H]4O)nc32)CC1 [Example 660, (1R,4s)-4-(8-(2-chloro-4,6-difluorophenylamino)-2-(((1S,2R)-2-hydroxycyclohexyl)methylamino)-9H-purin-9-yl)cyclohexanecarboxamide]",> 1000 nM
3,"Cc1ccc(S(=O)(=O)N2CCC[C@@H](Nc3ncc4nc(Nc5c(F)cc(C#N)cc5Cl)n([C@H]5CC[C@@H](C(N)=O)CC5)c4n3)C2)cc1 [Example 795, (1S,4s)-4-(8-(2-chloro-4-cyano-6-fluorophenylamino)-2-((R)-1-tosylpiperidin-3-ylamino)-9H-purin-9-yl)cyclohexanecarboxamide]",> 1000 nM
4,"C[C@@H]1COCC[C@H]1Nc1ncc2nc(Nc3c(Cl)cc(Cl)cc3Cl)n([C@H]3CC[C@@](C)(C(N)=O)CC3)c2n1 [Example 727, (1S,4s)-1-methyl-4-(2-((3S,4R)-3-methyltetrahydro-2H-pyran-4-ylamino)-8-(2,4,6-trichlorophenylamino)-9H-purin-9-yl)cyclohexanecarboxamide]",< 250 nM
5,"CCN1CCC[C@@H](Nc2ncc3nc(Nc4c(Cl)cc(Cl)cc4Cl)n([C@H]4CC[C@@H](C(N)=O)CC4)c3n2)C1 [Example 732, (1S,4s)-4-(2-((R)-1-ethylpiperidin-3-ylamino)-8-(2,4,6-trichlorophenylamino)-9H-purin-9-yl)cyclohexanecarboxamide]",> 1000 nM
6,"C[C@]1(C(N)=O)CC[C@@H](n2c(Nc3c(Cl)cc(F)cc3Cl)nc3cnc(N[C@@H]4CC[C@@H](O)C4)nc32)CC1 [Example 638, (1S,4s)-4-(8-(2,6-dichloro-4-fluorophenylamino)-2-((1R,3R)-3-hydroxycyclopentylamino)-9H-purin-9-yl)-1-methylcyclohexanecarboxamide]",< 250 nM
7,"CC(=O)N1CCC[C@@H](Nc2ncc3nc(Nc4c(Cl)cc(C#N)cc4Cl)n([C@H]4CC[C@@H](C(N)=O)CC4)c3n2)C1 [Example 712, (1S,4s)-4-(2-((R)-1-acetylpiperidin-3-ylamino)-8-(2,6-dichloro-4-cyanophenylamino)-9H-purin-9-yl)cyclohexanecarboxamide]",> 1000 nM
8,"C[C@]1(C(N)=O)CC[C@@H](n2c(Nc3c(F)cc(Cl)cc3F)nc3cnc(N[C@@H]4CCOC[C@H]4F)nc32)CC1 [Example 720, (1S,4s)-4-(8-(4-chloro-2,6-difluorophenylamino)-2-((3S,4R)-3-fluorotetrahydro-2H-pyran-4-ylamino)-9H-purin-9-yl)-1-methylcyclohexanecarboxamide]",< 250 nM
